We go through seven molecules from PMC9605770, “Molecular docking and antihypertensive effects of a novel angiotensin-I converting enzyme inhibitory peptide from yak bone” (Frontiers in Nutrition, 2022).

Series [1] can be described thus: In vitro gastrointestinal digestion of the peptide. In kind it is in vitro ADME. How it is done: Gastrointestinal digestion was evaluated according to the method of Dang et al. ([15]) and Mulet-Cabero et al. ([18]) with minor modification. Simulated gastric juice (pH 2.0) and simulated intestinal fluid mixture (pH 7.6) were added to peptide solution and incubated at 37°C for 2 h, respectively.

Series [2] deals with spontaneously hypertensive rats (SHRs). Nature of the series: Antihypertensive effect in SHRs (tail-cuff SBP). The conditions noted are these: oral, positive control group, 10 mg/kg BW, n = 6 per group. The format is in vivo, rat. How it is done: The systolic blood pressure (SBP) changes in the SHRs were measured by the tail-cuff method to determine the antihypertensive effect of ser-ala-ser-val-ile-pro-val-ser-ala-val-arg-ala (SASVIPVSAVRA) in vivo. Twenty female SHRs, weighing 230 ± 15 g and the SBP exceeding 190 mmHg, were obtained from Beijing Vital River Laboratory Animal Technology Co., Ltd. (China).
The SHRs were free to eat and drink at 25 ± 4°C and a 40 ± 6% humidity. To get the rats to adapt to the environment, the systolic blood pressure was measured once a day for 1 week. After a week of adaptation, the SHRs were randomly divided into three groups with each group containing 6 SHRs: the control group (sterilized water), captopril group (10 mg/kg captopril BW), SASVIPVSAVRA (30 mg/kg SASVIPVSAVRA BW). The effect of ACE inhibitors on SBP were measured by the Softron BP non-invasive blood pressure monitor (Softron BP-2000, Tokyo, Japan) at 0, 2, 4, and 6 h after oral administration ([1]), The measurements were repeated five times, the recordings were reported as mean ± standard deviation (SD). All animal procedures used in this trial were approved by the Institutional Animal Care and Use Committee of Hangzhou Medical College (Approval No. ZJCLA-IACUC-20010014).

In a further series the test system is ACE. The conditions noted are these: read-out: IC50 of ACE inhibition, cited from earlier work. An excerpt:
Therefore, it was meaningful to study the ACE inhibitory activity of SASVIPVSAVRA. || Generally, the presence of amino acids (Val, Ile) with hydrophobic branches would increase the ACE inhibitory activity ([26]). Therefore, the Val residue and Ile residue in SASVIPVSAVRA may contribute to the ACE activity of the peptide. […] The peptide SASVIPVSAVRA isolated from the yak bone hydrolysate also contained the tripeptide above-mentioned (VIP). The ACE inhibitory activity may also be due to the presence of ACE inhibitor VIP in its structure. Howev ...

Series [3] addresses T1, angiotensin-converting enzyme (ACE) (UniProt P12822).
T1 sequence: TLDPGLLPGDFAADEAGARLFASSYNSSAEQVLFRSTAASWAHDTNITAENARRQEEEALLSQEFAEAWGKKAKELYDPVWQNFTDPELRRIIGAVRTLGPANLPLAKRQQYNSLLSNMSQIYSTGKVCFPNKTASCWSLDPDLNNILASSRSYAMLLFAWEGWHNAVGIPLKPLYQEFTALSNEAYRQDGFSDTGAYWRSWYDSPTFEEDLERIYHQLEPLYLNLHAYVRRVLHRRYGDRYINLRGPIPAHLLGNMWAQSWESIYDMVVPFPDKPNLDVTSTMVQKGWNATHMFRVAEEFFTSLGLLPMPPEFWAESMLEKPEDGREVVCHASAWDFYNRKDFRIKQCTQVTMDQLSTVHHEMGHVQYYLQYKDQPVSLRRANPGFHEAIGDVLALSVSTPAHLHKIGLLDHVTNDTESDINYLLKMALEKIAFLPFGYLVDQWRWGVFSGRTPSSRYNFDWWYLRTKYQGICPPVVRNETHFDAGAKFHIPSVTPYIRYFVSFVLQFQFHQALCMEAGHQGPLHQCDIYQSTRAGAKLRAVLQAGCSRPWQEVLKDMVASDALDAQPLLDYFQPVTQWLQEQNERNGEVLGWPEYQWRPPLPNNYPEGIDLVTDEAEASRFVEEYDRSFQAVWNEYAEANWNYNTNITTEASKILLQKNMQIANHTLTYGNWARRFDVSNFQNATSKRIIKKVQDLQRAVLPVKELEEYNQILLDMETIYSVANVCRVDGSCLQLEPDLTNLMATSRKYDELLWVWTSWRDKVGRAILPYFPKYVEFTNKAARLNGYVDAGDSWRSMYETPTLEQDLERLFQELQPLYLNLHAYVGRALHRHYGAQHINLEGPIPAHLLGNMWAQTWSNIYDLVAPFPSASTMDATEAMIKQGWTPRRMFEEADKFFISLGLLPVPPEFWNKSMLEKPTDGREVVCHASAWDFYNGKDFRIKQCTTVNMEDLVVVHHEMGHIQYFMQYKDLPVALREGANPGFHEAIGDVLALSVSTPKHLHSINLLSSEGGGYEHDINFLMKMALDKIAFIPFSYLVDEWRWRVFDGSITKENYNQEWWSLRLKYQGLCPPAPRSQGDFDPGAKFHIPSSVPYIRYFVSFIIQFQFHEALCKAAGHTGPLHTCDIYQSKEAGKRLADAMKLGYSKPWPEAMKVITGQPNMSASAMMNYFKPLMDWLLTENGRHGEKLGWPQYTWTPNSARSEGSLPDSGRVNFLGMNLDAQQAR

Where two headings read alike, the source gives them in different places. Where a SMILES comes first, the peptide text is derived from it.

Regarding `CC[C@H](C)[C@H](NC(=O)[C@@H](NC(=O)[C@H](CO)NC(=O)[C@H](C)NC(=O)[C@@H](N)CO)C(C)C)C(=O)N1CCC[C@H]1C(=O)N[C@H](C(=O)N[C@@H](CO)C(=O)N[C@@H](C)C(=O)N[C@H](C(=O)N[C@@H](CCCNC(=N)N)C(=O)N[C@@H](C)C(=O)O)C(C)C)C(C)C` [SASVIPVSAVRA, ser-ala-ser-val-ile-pro-val-ser-ala-val-arg-ala] (H-SASVIPVSAVRA-OH), the “Digestive stability (peak of parent peptide in digested samples)” value in series [1] (simulated gastric juice pH 2.0 and simulated intestinal fluid pH 7.6, 37°C, 2 h each, MS (TIC chromatography)) is recorded as “easily digested”. For the molecule `CC[C@H](C)[C@H](NC(=O)[C@@H](NC(=O)[C@H](CO)NC(=O)[C@H](C)NC(=O)[C@@H](N)CO)C(C)C)C(=O)N1CCC[C@H]1C(=O)N[C@H](C(=O)N[C@@H](CO)C(=O)N[C@@H](C)C(=O)O)C(C)C` [SASVIPVSA] (H-SASVIPVSA-OH), in series [1] (digestion of SASVIPVSAVRA, simulated gastric juice pH 2.0 and intestinal fluid pH 7.6, 37°C, peak area by MS), the “Metabolite found in the digestion sample” value was “main metabolite”.

As to `C[C@H](CS)C(=O)N1CCC[C@H]1C(=O)O` [captopril], the “Maximum reduction of systolic blood pressure” value in series [2] worked out at 14.9%. Broadly, the IC50 is the concentration that gives 50% inhibition. Regarding IVVE, the IC50 in the series on ACE (reported peptides) is 315 µM.

For the molecule QLLLQQ, the IC50 with ACE (reported peptides) is 75 µM. As to SGGSYADELVSTAK, in the series with ACE (reported ACE peptide), the IC50 is 0.093 µM. SASVIPVSAVRA [ser-ala-ser-val-ile-pro-val-ser-ala-val-arg-ala (…)]: the IC50 of ACE inhibitory activity (substrate HHL, HEPES buffer with 300 mM NaCl, pH 8.3, 37°C, HPLC) in series [3] worked out at 54.2 μM.
